Assay results as given in patent EP4741391A1, “NMT INHIBITOR, AND PREPARATION METHOD THEREFOR AND USE THEREOF” (Nanjing Synnocare Pharmaceutical Technology Co., Ltd., priority 2023, dated 2025).

Tests used:
NMT1 enzyme = target: T1, NMT1 enzyme (Homo sapiens, UniProt P30419); test: Inhibitory activity on NMT1 enzyme catalysis (fluorescence intensity, CPM probe); assay type: biochemical; conditions: 6 nM NMT1 enzyme, 1.25 µM myristoyl-CoA, 20 µM HSPP60 SRC peptide, 45 minutes at 25 °C
T1 sequence (P30419 1-496): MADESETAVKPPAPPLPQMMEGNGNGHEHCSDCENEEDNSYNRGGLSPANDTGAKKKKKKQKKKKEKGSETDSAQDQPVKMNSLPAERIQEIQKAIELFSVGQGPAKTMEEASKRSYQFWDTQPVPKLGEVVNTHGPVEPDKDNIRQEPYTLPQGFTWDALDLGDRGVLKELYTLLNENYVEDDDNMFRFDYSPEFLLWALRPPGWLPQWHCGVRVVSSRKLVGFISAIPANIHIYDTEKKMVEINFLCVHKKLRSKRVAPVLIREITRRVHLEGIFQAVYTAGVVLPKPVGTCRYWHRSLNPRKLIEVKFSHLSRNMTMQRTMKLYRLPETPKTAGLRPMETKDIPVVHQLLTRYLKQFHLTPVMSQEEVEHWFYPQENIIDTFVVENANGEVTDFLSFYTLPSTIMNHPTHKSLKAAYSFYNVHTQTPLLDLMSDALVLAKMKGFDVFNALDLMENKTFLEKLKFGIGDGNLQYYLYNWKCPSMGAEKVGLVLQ
Procedure: This study evaluated the ability of the compounds of the invention to inhibit NMT1 catalytic activity in vitro. The experiment used a FI (Fluorescence Intensity) analysis method, characterizing NMT1 inhibitors under conditions of 1.25 µM myristoyl-CoA (Lithium salt, Sigma, M4414). In this experiment, a synthesized peptide with the sequence H-Gly-Ser-Asn-Lys-Ser-Lys-Pro-Lys-NH2, HSPP60SRC (Nanjing Peptide Industry, NJP23953), was used as the reaction substrate. The final concentration of the NMT1 enzyme was 6 nM, the final concentration of CPM (Reactive thiol fluorescence probe, Invitrogen, D346) was 1 µM, the final concentration of HSPP60 SRC was 20 µM, and the final concentration of DMSO was 0.5%.
Compounds were dissolved in DMSO to obtain 10 mM stock solutions. Dose-response solutions were prepared with a top endpoint compound concentration of 3 mM, followed by three-fold serial dilutions in DMSO, totaling ten data points. Using an ECHO acoustic liquid handler (BECKMAN, ECHO 655 system), 0.05 µL of the diluted compound solutions was transferred to a 384-well assay plate (Corning, CLS4514). Then, 2.5 µL of the NMT1 enzyme working solution was added to the 384-well assay plate, followed by incubation at 25 °C for 10 minutes. Subsequently, 5 µL of the CPM and myristoyl-CoA working solution was added, the plate was centrifuged at 1000 rpm for 1 minute, and then 2.5 µL of the HSPP60 SRC working solution was added to initiate the reaction. The reaction was incubated at 25 °C for 45 minutes. The FI signal ([…]; ex: 405 nm) was detected using an HTS high-throughput screening multifunctional microplate reader (BMG, PHERA star FSX).
The inhibition rate of the compounds on NMT1 enzyme catalytic activity was calculated using the following formula: Inhibition Percentage (%) = 100 * (Mean of DMSO group - Mean of Compound group) / (Mean of DMSO group - Mean of Blank control group). The IC50 curve of the compounds was fitted using the software XLfit 5.5.0 according to the nonlinear regression equation. Table 1 provides the inhibitory activity of the compounds of the invention on NMT1 enzyme catalysis.

MV-4-11 cells = test: Anti-proliferative activity against MV-4-11 cells (three-day cell viability chemiluminescence); assay type: cell-based; conditions: MV-4-11 human monocytic leukemia cells, three days of exposure
Procedure: This study utilized a cell proliferation assay to analyze the cytotoxicity of MV-4-11 human monocytic leukemia cells after three days of exposure to NMT1 inhibitors. The MV-4-11 cell line was purchased from Nanjing Cobuilder Biotechnology Co., Ltd., and cultured in IMDM medium (Viva cell) in an incubator (Thermo) at 37 °C with 5% CO2. In this experiment, NMT1 inhibitors were dissolved in DMSO to obtain 600 µM stock solutions. Dose-response solutions were prepared with a top endpoint compound concentration of 3 µM, followed by three-fold serial dilutions in DMSO, totaling eight data points. The final concentration of DMSO was 0.5%.
MV-4-11 cells were seeded into a white 96-well plate, 80 µL of cell suspension per well, containing 6000 MV-4-11 cells. The cell plate was placed in the CO2 incubator for overnight culture. Then, 20 µL of NMT1 inhibitor solutions at different concentrations were added to the wells. The 96-well plate was placed back into the incubator for three days. Another cell plate was prepared, and the signal was read on the day of drug addition to serve as the maximum value (Max value in the equation below) for data analysis. To this cell plate, 25 µL of cell viability chemiluminescence detection reagent was added per well, followed by incubation at room temperature for 10 minutes to stabilize the luminescence signal. A multi-label analyzer was used for reading.
The raw data were converted into inhibition rates using the equation (Sample - Min) / (Max - Min) * 100%. The IC50 values were then determined by fitting a four-parameter curve (using the "log(inhibitor) vs. response - Variable slope" model in GraphPad Prism). Min: wells treated with 0.5% DMSO; Max: Day 0 wells. Table 1 provides the inhibitory activity of the compounds of the invention on MV-4-11 cell proliferation. Table 1: Compound Inhibitory Activity against NMT1 Enzyme (IC50) and Anti-proliferative Activity against MV-4-11 Cells (IC50)

Compound | IC50 (NMT1 enzyme) [nM] | IC50 (MV-4-11 cells; Homo sapiens, MV4-11, 72 h) [nM] | IC50 (MV-4-11 cells) [nM]
Cc1c(CCOc2cc(Cl)ccc2-c2ccn3ncc(CN(C)C)c3c2)c(C(=O)N(C)C)nn1C [Compound 1, 4-{2-[(5-chloro-2-{3-[(dimethylamino)methyl]-pyrazolo [1,5-a]pyridin-5-yl}phenyl)oxy]ethyl}-1,5,N,N-tetramethylpyrazole-3-carboxamide] | 1.77 | 17.1 | –
Cc1c(CCOc2cc(Cl)ccc2-c2ccn3ncc(CN(C)C)c3c2)c(C#N)nn1C [Compound 13, 4-{2-[(5-chloro-2-{3-[(dimethylamino)methyl]pyrazolo[1,5-a]pyridin-5-yl}phenyl)oxy]ethyl}-1,5-dimethylpyrazole-3-carbonitrile] | 2.79 | 23.2 | –
Cc1c(CCOc2c(F)cc(F)cc2-c2ccn3ncc(CN(C)C)c3c2)c(C(=O)N(C)C)nn1C [Compound 10, 4-{2-[(6-{3-[(dimethylamino)methyl]pyrazolo[1,5-a]pyridin-5-yl}-2,4-difluorophenyl)oxy]ethyl}-1,5,N,N-tetram ethylpyrazole-3-carboxamide] | 2.59 | 26.4 | –
CNCc1cnn2ccc(-c3ccc(F)cc3OCCc3c(C(C)(C)O)nn(C)c3C)cc12 [Compound 33, 2-(4-{2-[(5-fluoro-2-{3-[(methylamino)methyl]pyrazolo[1,5-a]pyridin-5-yl}phenyl)oxy]ethyl}-1,5-dimethylpyrazol-3-yl)propan-2-ol] | 2.13 | 5.49 | –
CNCc1cnn2ccc(-c3ccc(F)c(F)c3OCCc3c(C(=O)N(C)C)nn(C)c3C)cc12 [Compound 21, 4-{2-[(2,3-difluoro-6-{3-[(methylamino)methyl]pyrazolo[1,5-a]pyridin-5-y 1}phenyl)oxy]ethyl}-1,5,N,N-tetramet hylpyrazole-3-carboxamide] | 1.61 | < 10 | 5.91
Cc1c(CCOc2cc(F)ccc2-c2ccn3ncc(CN(C)C)c3c2)c(C(=O)N(C)C)nn1C [Compound 4, 4-{2-[(2-{3-[(dimethylamino)methyl]pyrazolo[1,5-a]pyridin-5-yl}-5-fluorophenyl)oxy]ethyl} -1 ,5,N,N-tetrameth ylpyrazole-3-carboxamide] | 1.65 | 11.4 | –
CNCc1cnn2ccc(-c3ccc(F)c(F)c3OCCc3c(C#N)nn(C)c3C)cc12 [Compound 27, 4-{2-[(2,3-difluoro-6-{3-[(methylamino)methyl]pyrazolo[1,5-a]pyridin-5-yl}phenyl)oxy]ethyl}-1,5-dimethylpyr azole-3-carbonitrile] | 1.82 | < 10 | 5.56
CNCc1cnn2ccc(-c3ccc(F)c(F)c3OCCc3c(C(=O)NC)nn(C)c3C)cc12 [Compound 22, 4-{2-[(2,3-difluoro-6-{3-[(methylamino)methyl]pyrazolo[1,5-a]pyridin-5-yl}phenyl)oxy]ethyl}-1,5,N-trimethylp yrazole-3-carboxamide] | 1.89 | 10.6 | –
Cc1c(CCOc2cc(Cl)ccc2-c2ccn3ncc(CN)c3c2)c(C(=O)N(C)C)nn1C [Compound 3, 4-[2-({2-[3-(aminomethyl)pyrazolo[1,5-a]pyridin-5-yl]-5-chlorophenyl}oxy)ethyl]-1,5,N,N-tetramethylpyrazole-3-carboxamide] | 3.45 | 41.2 | –
CNCc1cnn2ccc(-c3ccc(F)c(F)c3OCCc3c(CF)nn(C)c3C)cc12 [Compound 26, 5-[3,4-difluoro-2-({2-[3-(fluoromethyl)-1,5-dimethylpyrazol-4-yl]ethyl}oxy)phenyl]-3-[(methylamino)methyl]p yrazolo[1,5-a]pyridine] | 2.48 | 12.3 | –
CCN(CC)C(=O)c1nn(C)c(C)c1CCOc1cc(Cl)ccc1-c1ccn2ncc(CN(C)C)c2c1 [Compound 20, 4-{2-[(5-chloro-2-{3-[(dimethylamino)methyl]pyrazolo[1,5-a]pyridin-5-yl}phenyl)oxy]ethyl}-N,N-diethyl-1,5-dimethylpyrazole-3-carboxamide] | 2.76 | 23.5 | –
CCc1nn(C)c(C)c1CCOc1c(-c2ccn3ncc(CNC)c3c2)ccc(F)c1F [Compound 24, 5-(2-{[2-(3-ethyl-1,5-dimethylpyrazol-4-yl)ethyl]oxy}-3,4-difluorophenyl)-3-[(methylamino)methyl]pyrazolo[1,5-a]pyridine] | 2.81 | 24.9 | –
Cc1c(CCOc2cc(Cl)ccc2-c2ccn3ncc(CN(C)C)c3c2)c(C(N)=O)nn1C [Compound 16, 4-{2-[(5-chloro-2-{3-[(dimethylamino)methyl]pyrazolo[1,5-a]pyridin-5-yl}phenyl)oxy]ethyl}-1,5-dimethylpyrazole-3-carboxamide] | 5.32 | 41.8 | –
CCc1nn(C)c(C)c1CCOc1cc(Cl)ccc1-c1ccn2ncc(CN(C)C)c2c1 [Compound 15, 5-(4-chloro-2-{[2-(3-ethyl-1,5-dimethylpyrazol-4-yl)ethyl]oxy}phenyl)-3-[(dimethylamino)methyl]pyrazolo[1,5-a]pyridine] | 2.34 | 20.7 | –
Cc1c(CCOc2c(-c3ccn4ncc(CN(C)C)c4c3)ccc(Cl)c2F)c(C(=O)N(C)C)nn1C [Compound 8, 4-{2-[(3-chloro-6-{3-[(dimethylamino)methyl]pyrazolo[1,5-a]pyridin-5-yl}-2-fluorophenyl)oxy]ethyl}-1,5,N,N-tetramethylpyrazole-3-carboxamide] | 2.89 | 28.4 | –
CCN(C)C(=O)c1nn(C)c(C)c1CCOc1cc(Cl)ccc1-c1ccn2ncc(CN(C)C)c2c1 [Compound 19, 4-{2-[(5-chloro-2-{3-[(dimethylamino)methyl]pyrazolo[1,5-a]pyridin-5-yl}phenyl)oxy]ethyl}-N-ethyl-1,5,N-tri methylpyrazole-3-carboxamide] | 3.21 | 29.8 | –
CCNC(=O)c1nn(C)c(C)c1CCOc1cc(Cl)ccc1-c1ccn2ncc(CN(C)C)c2c1 [Compound 18, 4-{2-[(5-chloro-2-{3-[(dimethylamino)methyl]pyrazolo[1,5-a]pyridin-5-yl}phenyl)oxy]ethyl}-N-ethyl-1,5-dime thylpyrazole-3-carboxamide] | 2.97 | 30.2 | –
